Measured values reported in patent publication US20220117920A1, “N-Aryl Benzenesulfonamides as Protonophores for the Treatment of Cancers, Metabolic Diseases and Traumatic Brain Injury” (University of Kentucky Research Foundation, priority 2019, published 2022).

Tests used:
AMPK = assay: Western blot of AMPK (T172) and ACC (S79) phosphorylation in CRC cells; assay type: cell-based, human
Method: Biochemistry. Western blotting: Cells were lysed in the appropriate volume of lysis buffer: 50 mM HEPES, 100 mM NaCl, 2 mM EDTA, 1% (v/v) glycerol, 50 mM NaF, 1 mM Na3VO4, 1% (v/v) Triton X-100, with protease inhibitors. The following antibodies were used: AMPK (Cell Signaling, 2532, Cell Signaling Technologies, Danver, Mass., USA), pAMPK (Cell Signaling, 2535), ACC (Cell Signaling, 3676), pACC (Cell Signaling, 11818), Actin (Sigma, A1978). Antibodies for Axin 2, c-Myc and Cyclin D1 have been described previously. ATP analysis: Cells growing in 12-well plates were treated with DMSO or inhibitors in DMSO solution and lysed by adding 1 mL boiling doubly distilled water. Supernatants were analyzed by luminescence using ATP Determination Kit (Invitrogen, A22066; Thermo Fisher Scientific, Waltham, Mass., USA).

DLD-1 cells = assay: Seahorse uncoupling assay (OCR) in DLD-1 cells; assay type: cell-based, human; conditions: testing compound 3 μM
Method: Seahorse assay. Approximately 3×10^4 cells were seeded in XF96 Cell Culture microplate (80 μL of 3.75×10^5 cells/mL) for all experiments. On the next day, cell culture media were replaced with either Seahorse XF modified media with 25 mM glucose and 1 mM pyruvate. After media exchange, cells were treated with 1 μM of oligomycin A, 1.0 μM FCCP and mixture of 1.0 μM of rotenone and 1.0 μM of antimycin A in standard mitochondrial stress test conditions. To determine the uncoupler effects, FCCP was replaced with an equal volume of DMSO, or a compound to be tested in DMSO solution. ATP production rate was analyzed using Agilent Seahorse XF Real-Time ATP Rate Assay.

[1] = tested on: purified mitochondria from mouse liver; assay: Uncoupling assay (OCR) using purified mitochondria from mouse livers; assay type: biochemical; conditions: 5 μM/1 μM
Method: All the steps were carried out at 4° C. or on ice. After mice were euthanized with CO2 followed by rapid decapitation, whole liver was quickly dissected out on a cold block and homogenized using a Teflon-glass dounce homogenizer containing isolation buffer (215 mM mannitol, 75 mM sucrose, 0.1% BSA, 20 mM HEPES, 1 mM EGTA, adjusted to pH 7.2 with KOH). The homogenate was transferred to a 2 mL-microcentrifuge tube and spun at 1,300×g for 3 min. The supernatant was transferred to a fresh 2 mL-microcentrifuge tube and spun at 13,000×g for 10 min. The supernatant was discarded, and the crude mitochondrial pellet was resuspended in a 1.5 mL-microcentrifuge tubes and pelleted again at 10,000×g for 10 min. The supernatant was discarded, and the mitochondrial pellets were resuspended in isolation buffer to obtain an approximate concentration ≥10 mg/mL of mitochondria. The absolute protein concentration was determined using a bicinchoninic acid (BCA) protein assay kit (Pierce, Cat #23,227) by recording absorbance at 560 nm on a Biotek Synergy HT plate reader (Winooski, Vt., USA).
Mitochondrial Bioenergetics Measurements. Mitochondrial bioenergetic measurements were carried out using a Seahorse XFe96 Extracellular Flux Analyzer (Agilent Technologies, Santa Clara, Calif., USA) to measure oxygen consumption rate (OCR) during various states of respiration. The OCR were measured in the presence of different substrates, inhibitors and uncouplers of the electron transport chain using previous methods with slight modifications. The stocks used for the assays were 500 mM pyruvate, 250 mM malate, and 30 mM adenosine diphosphate (ADP), and 1 M succinate (pH for all was adjusted to 7.2). […] Stock solutions of FH535, Y3, FH535-M, and Y3-M were prepared at 5 mM in 100% DMSO. As per the instructions from XFe96 Extracellular Flux kit, the sensor cartridge was hydrated with water and kept at 37° C. overnight before the experiment. One hour before the assay was conducted, water was removed from assay plates and XF calibrant was added before re-incubation. The injection ports A to D of the sensor cartridge were loaded with 25 μL of different combinations of the above substrates/inhibitors/uncouplers as follows. Before loading, the stocks were diluted appropriately in the respiration buffer (RB) (125 mM KCl, 0.1% BSA, 20 mM HEPES, 2 mM MgCl2, and 2.5 mM KH2PO4; pH 7.2) to get the final concentrations in the respiration chamber of 5 μM pyruvate, 2.5 μM malate, 10 μM of succinate and 1 μM ADP (via Port A), 1 μM oligomycin A (via Port B), 4 μM FCCP or 5 μM/1 μM FH535 or 5 μM/1 μM Y3 or 5 μM/1 μM FH535-M or 5 μM/1 μM Y3-M (via Port C) and 0.1 μM antimycin A (via Port D) starting with the initial volume of 175 μL RB in the chamber and diluting it to 9×, 10×, 11× and 12× with every injection through ports A to D, respectively. Once loaded, the sensor cartridge was placed into the Seahorse XFe96 Flux Analyzer for automated calibration. Seahorse Standard XFe96 assay plates were used for loading mitochondria. Initially total mitochondria were diluted to 6 μg/30 μL in RB and 30 μL was loaded in each well resulting in 6 μg mitochondria/well. The assay plates were centrifuged at 3,000 rpm for 4 min at 4° C. to adhere liver mitochondria at the bottom of the wells. After centrifugation, 145 μL RB (pre-incubated to 37° C.) was added without disturbing the mitochondrial layer to obtain a final volume of 175 μL per well. […]

[2] = Gross-toxicity assay in mice; assay type: in vivo; conditions: intraperitoneal injections up to 15 mg/kg for 5-6 weeks
Method: FIGS. 20A-D show graphs and images illustrating FH535 effect in vivo. (A) Mice body weight after FH535 treatment. C57BL/6 mice (n=5) were treated by intraperitoneal injection with 15 mg/Kg of FH535 or DMSO vehicle control every 4 days for 6 weeks. Mice were monitored before injections for signs of body weight loss, impaired mobility, labored breathing and body score based on the Ullman-Culleré MH, Foltz CJ method. (B-D) FH535 reduces tumor growth in vivo in a xenograft tumor model. Huh7 cell were injected subcutaneously on the right flank of athymic nude mice. FH535 (15 mg/Kg) or vehicle (DMSO) were administrated by intraperitoneal injection every other day when tumor size reached 100 mm^3. (B) Tumor growth was monitored every other day until day 10 of starting treatments when mice were euthanized according to the AVMA guidelines, *p<0.05 (n=5, each group); (C) Tumor weight of excised tumors after 10 day treatment with FH535 reduced the tumor weight in 42±8% compared to vehicle treatment, **p<0.001 (n=4, each group). (D) H&E and ki67 stainings from one representative tumor of each group treatment. Pictures were taken at 400× magnification.
To validate further the in vivo anti-tumor effect of FH535, we performed a gross-toxicity assay in mice with FH535 doses ranging from 0 to 30 mg/kg. […] Next, we evaluated the in vivo anti-tumor activity of FH535 in a Huh7 tumor xenograft model. […]

Huh7 cells = assay: Western blot of autophagy markers LC3II and p62 in Huh7 cells; assay type: cell-based, human
Excerpt: Primary antibodies are described in Table 1.

Wnt/β-catenin pathway = assay: TOP-Flash TCF4-dependent dual luciferase reporter assay in Huh7 cells; assay type: cell-based, human; conditions: Huh7, 10 mM LiCl
Method: Cells were plated at 1×10^5 cells/well in 24-well plates and transiently transfected with 490 ng of luciferase-reporter plasmid and 10 ng of phRL-TK per well using the Turbofect transfection reagent (Thermo Scientific, USA). After 5-6 h post-transfection, cells were treated with drug(s) or DMSO vehicle control for 36 h in the presence or absence of LiCl (10 mM). Luciferase assays were performed using the Dual Luciferase Assay System (Promega, USA) according to manufacturer's instructions.

## Cc1cc([N+](=O)[O-])ccc1NS(=O)(=O)c1cc(Cl)ccc1Cl [FH535, 2,5-dichloro-N-(2-methyl-4-nitrophenyl)benzenesulfonamide]
AMPK
  time to AMPK activation after treatment: ≤ 15 min
AMPK; 3 μM
  ACC (S79 phosphorylation): induced AMPK phosphorylation and ACC phosphorylation
  AMPK activity (T172 phosphorylation): activated AMPK
DLD-1 cells
  uncoupling: OCR inhibited by oligomycin: increased OCR inhibited by oligomycin
[1]
  uncoupling: OCR blocked by oligomycin: increased OCR in dose-dependent manner
[2]
  signs of body distress or toxicity (weight loss, ambulatory ability, respiration, dehydration): did not induce major signs of body distress or toxicity
Huh7 cells; Huh7, 50 μM CQ 8 h
  accumulation of LC3II in the presence of CQ (autophagic flux, ΔLC3II): reduced accumulation of LC3II in the presence of CQ
Huh7 cells; Huh7, 40 h
  LC3II protein levels: increased the lipid-bound expression of LC3II levels in a dose-dependent manner
  p62 protein levels: increased
Wnt/β-catenin pathway
  Wnt/β-catenin transcriptional activity (TOP-Flash): target the Wnt/β-catenin signaling pathway
